# From US10004732B2 (Novartis AG, priority 2014, dated 2018)
# Tests used:
# PI 3-kinase alpha [1] = biological target: T1, PI 3-kinase alpha (Homo sapiens, UniProt P42336); assay: Kinase Glo Luminescent Kinase Assay (Kglo), assay A; format: biochemical; settings: read-out: Assay A PI3Kα IC50
# PI 3-kinase beta [2] = biological target: T2, PI 3-kinase beta (Homo sapiens, UniProt P42338); assay: Kinase Glo Luminescent Kinase Assay (Kglo), assay B; format: biochemical; settings: read-out: Assay B PI3Kβ IC50
# Target sequence in this assay (P42338 whole entry): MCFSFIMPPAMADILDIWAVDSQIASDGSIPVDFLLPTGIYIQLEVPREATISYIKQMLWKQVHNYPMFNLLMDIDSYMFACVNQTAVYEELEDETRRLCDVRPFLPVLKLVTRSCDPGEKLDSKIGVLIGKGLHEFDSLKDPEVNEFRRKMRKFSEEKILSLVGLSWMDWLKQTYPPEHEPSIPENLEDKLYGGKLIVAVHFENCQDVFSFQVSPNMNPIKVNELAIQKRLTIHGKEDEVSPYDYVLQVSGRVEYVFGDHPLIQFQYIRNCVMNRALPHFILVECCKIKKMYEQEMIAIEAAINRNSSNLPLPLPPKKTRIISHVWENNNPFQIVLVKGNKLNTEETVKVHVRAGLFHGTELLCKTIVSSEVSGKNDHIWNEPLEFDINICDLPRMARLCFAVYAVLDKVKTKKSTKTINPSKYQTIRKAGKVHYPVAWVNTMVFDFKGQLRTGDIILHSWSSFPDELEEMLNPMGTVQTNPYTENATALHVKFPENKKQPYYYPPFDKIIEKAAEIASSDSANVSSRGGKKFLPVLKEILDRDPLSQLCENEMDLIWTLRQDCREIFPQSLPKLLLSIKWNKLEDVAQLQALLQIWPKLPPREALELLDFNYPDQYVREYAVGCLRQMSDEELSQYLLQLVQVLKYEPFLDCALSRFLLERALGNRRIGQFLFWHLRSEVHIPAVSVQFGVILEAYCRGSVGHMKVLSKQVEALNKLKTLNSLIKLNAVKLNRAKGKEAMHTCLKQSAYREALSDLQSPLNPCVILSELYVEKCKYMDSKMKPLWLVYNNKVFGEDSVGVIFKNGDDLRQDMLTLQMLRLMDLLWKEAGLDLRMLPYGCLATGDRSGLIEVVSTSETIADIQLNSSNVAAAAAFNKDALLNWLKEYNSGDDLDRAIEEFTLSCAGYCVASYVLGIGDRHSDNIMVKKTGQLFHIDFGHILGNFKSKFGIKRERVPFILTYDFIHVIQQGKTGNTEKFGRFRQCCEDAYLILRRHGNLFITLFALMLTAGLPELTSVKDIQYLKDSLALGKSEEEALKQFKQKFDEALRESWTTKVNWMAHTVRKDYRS
# Target sequence in this assay (P27986 461-568 partner): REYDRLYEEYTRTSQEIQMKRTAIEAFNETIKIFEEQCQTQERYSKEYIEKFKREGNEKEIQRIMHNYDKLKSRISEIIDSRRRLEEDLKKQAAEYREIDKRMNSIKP
# Vps34 = Vps34 (Homo sapiens, UniProt Q8NEB9); assay: Kinase Glo Luminescent Kinase Assay (Kglo), assay C; format: biochemical; settings: read-out: Assay C VPS34 IC50
# Method: Kinase Glo Luminescent Kinase Assay (Kglo) for Pb 3-Kinase Alpha (A), Pb 3-Kinase Beta (B), Vps34 (C), Pb 4-Kinase Beta (D)
# The Kinase Glo Luminescent Kinase Assay (Promega, Madison/Wis., USA) is a homogeneous HTS method of measuring kinase activity by quantifying the amount of ATP remaining in solution following a kinase reaction.
# L-α-phosphatidylinositol (PI), provided as 10 mg/ml solution in methanol, was transferred into a glass tube and dried under a nitrogen beam. It was then resuspended in 3% OctylGlucoside (1-0-n-octyl-beta-D-glucopyranoside) by vortexing and stored at 4° C. 5 μL of a mix of PI/OctylGlucoside with the PI 3-kinase alpha and PI 3-kinase beta subtypes, or Vps34 or PI 4-kinase beta were added. Kinase reactions were started by the addition of 5 μl of an ATP-mix containing in a final volume 10 μL 10 mM TRIS-HCl pH 7.5, 3 mM MgCl2, 50 mM NaCl, 0.05% CHAPS, 1 mM DTT and 1 μM ATP at room temperature.
# All fits were performed with the program XLfit4 (ID Business Solutions, Guildford, UK).
# PI 4-kinase beta = PI 4-kinase beta (Homo sapiens, UniProt Q9UBF8); assay: Kinase Glo Luminescent Kinase Assay (Kglo), assay D; format: biochemical; settings: read-out: Assay D PI4Kβ IC50
# PI 3-kinase gamma [3] = biological target: T3, PI 3-kinase gamma (Homo sapiens, UniProt P48736); assay: TR-FRET Adapta assay, assay E; format: biochemical; settings: read-out: Assay E PI3Kγ IC50
# mTOR = mTOR (Homo sapiens, UniProt P42345); assay: Lanthascreen kinase binding assay, assay G; settings: read-out: Assay G mTOR IC50
# Method: Lanthascreen™ Kinase Binding Assay for mTOR (G)
# Binding of an inhibitor to the kinase competes for binding with the tracer, resulting in a loss of FRET.
# 50 nL of compound dilutions were dispensed onto white 384-well small volume polystyrene plate.
# PI 3-kinase gamma [4] = biological target: T3, PI 3-kinase gamma; assay: Cellular U937 AKT assay K2 (HTRF); format: cell-based; settings: U937 cells, K2 format; read-out: Assay K2 PI3Kγ IC50
# PI 3-kinase delta [5] = biological target: T4, PI 3-kinase delta (Homo sapiens, UniProt O00329); assay: TR-FRET Adapta assay, assay F; settings: read-out: Assay F PI3Kδ IC50
# Target sequence in this assay (O00329 whole entry): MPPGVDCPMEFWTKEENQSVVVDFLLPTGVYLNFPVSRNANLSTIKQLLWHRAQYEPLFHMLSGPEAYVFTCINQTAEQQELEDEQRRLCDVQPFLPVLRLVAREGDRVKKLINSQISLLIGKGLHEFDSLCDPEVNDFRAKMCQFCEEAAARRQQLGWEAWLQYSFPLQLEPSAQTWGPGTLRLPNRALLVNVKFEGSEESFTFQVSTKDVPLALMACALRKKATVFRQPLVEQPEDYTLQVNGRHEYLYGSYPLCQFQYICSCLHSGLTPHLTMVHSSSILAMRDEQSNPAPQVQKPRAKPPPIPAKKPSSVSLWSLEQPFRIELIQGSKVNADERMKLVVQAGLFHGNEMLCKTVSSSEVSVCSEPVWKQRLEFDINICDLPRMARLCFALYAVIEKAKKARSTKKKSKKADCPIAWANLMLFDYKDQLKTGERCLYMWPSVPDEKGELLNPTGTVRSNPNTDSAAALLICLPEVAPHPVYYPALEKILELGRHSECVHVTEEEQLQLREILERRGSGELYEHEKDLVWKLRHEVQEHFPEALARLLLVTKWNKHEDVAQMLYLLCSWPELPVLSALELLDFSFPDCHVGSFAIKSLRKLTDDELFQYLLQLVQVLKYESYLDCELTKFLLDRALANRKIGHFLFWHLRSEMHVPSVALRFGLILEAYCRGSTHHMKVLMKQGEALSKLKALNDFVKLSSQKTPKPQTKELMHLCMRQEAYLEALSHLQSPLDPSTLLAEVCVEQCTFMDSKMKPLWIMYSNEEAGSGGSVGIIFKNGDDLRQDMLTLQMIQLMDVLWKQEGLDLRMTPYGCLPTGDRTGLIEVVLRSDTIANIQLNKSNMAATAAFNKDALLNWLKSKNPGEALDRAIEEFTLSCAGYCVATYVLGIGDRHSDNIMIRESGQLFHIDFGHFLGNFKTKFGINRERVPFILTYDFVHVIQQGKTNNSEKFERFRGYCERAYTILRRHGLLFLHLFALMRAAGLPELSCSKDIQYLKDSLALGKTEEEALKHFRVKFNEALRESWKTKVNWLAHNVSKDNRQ
# Target sequence in this assay (P27986 461-568 partner): as the sequence (P27986 461-568 partner) above
# PI 3-kinase alpha [6] = biological target: T1, PI 3-kinase alpha; assay: Cellular assay H1, p-Akt (S473) in Rat-1 cells, Surefire format; format: cell-based; settings: non-asterisked data: version H1 (Surefire format), Rat-1 cells; read-out: Assay H PI3Kα IC50
# From the text: Cellular Assays for PI 3-Kinase Alpha (H1), Beta (I1) and Delta (J1): Surefire Format
# AlphaScreen (Amplified Luminescent Proximity Homogeneous Assay, ALPHA, Perkin Elmer) is a non-radioactive bead-based proximity assay technology to study biomolecular interactions in a homogenous microtiter plate format. The brand name SureFire denotes AlphaScreen assays that are adapted to quantify the phosphorylation of endogenous cellular proteins in cell lysates, by using matched antibody pairs, which consist of an anti-phospho-kinase and an anti-kinase antibody. The assay allows characterization of kinase signaling in cells as well as measurement of kinase inhibitor effects.
# Using Rat-1 cells stably expressing myr-HA-tagged versions of the human PI3Kdelta, PI3Kalpha, or PI3Kbeta p110 catalytic subunit isoforms, the assay was developed as a two-plate protocol in a 384-well format.
# For compound testing, the cells were seeded at a density of 4000 (Rat-1_PI3Kdelta), 7500 (Rat-1_PI3Kalpha), or 6200 (Rat-1_PI3Kbeta) cells in 20 μl complete growth medium into cell culture treated 384-well plates and were grown at 37° C./5% CO2/90% humidity for 24 h. Shortly before compound transfer, the complete medium was removed, 30 μl assay buffer (DMEM high glucose, 1×MEM NEAA, 10 mM HEPES, 2 mM L-glutamine, 0.1% (w/v) BSA) was added and 10 μl of the compound predilutions were transferred to the cells.
# PI 3-kinase beta [7] = biological target: T2, PI 3-kinase beta; assay: Cellular assay I1, p-Akt (S473) in Rat-1 cells, Surefire format; format: cell-based; settings: non-asterisked data: version I1 (Surefire format), Rat-1 cells; read-out: Assay I PI3Kβ IC50
# Target sequence in this assay (P42338 whole entry): as the sequence (P42338 whole entry) above
# Target sequence in this assay (Q63787 whole entry partner): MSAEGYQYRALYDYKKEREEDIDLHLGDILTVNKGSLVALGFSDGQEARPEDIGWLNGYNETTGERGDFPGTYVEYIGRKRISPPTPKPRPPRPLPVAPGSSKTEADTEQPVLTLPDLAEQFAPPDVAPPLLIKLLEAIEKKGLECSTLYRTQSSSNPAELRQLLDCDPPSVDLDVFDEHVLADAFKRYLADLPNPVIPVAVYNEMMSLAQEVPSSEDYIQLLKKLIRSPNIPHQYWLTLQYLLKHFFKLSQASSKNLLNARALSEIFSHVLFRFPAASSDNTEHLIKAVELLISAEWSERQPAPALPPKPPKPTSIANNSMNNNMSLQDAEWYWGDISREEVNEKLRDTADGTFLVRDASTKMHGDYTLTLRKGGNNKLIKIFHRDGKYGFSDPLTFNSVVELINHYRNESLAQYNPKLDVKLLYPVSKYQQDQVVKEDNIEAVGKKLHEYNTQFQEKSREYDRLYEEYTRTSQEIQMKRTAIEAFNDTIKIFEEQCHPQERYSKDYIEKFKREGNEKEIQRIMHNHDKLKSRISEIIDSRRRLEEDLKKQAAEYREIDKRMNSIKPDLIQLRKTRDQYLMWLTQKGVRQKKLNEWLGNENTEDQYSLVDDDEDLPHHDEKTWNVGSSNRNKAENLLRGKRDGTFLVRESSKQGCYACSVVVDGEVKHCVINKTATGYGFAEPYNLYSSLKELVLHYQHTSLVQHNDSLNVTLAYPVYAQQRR
# PI 3-kinase delta [8] = biological target: T4, PI 3-kinase delta; assay: Cellular assay J1, p-Akt (S473) in Rat-1 cells, Surefire format; format: cell-based; settings: non-asterisked data: version J1 (Surefire format), Rat-1 cells; read-out: Assay J PI3Kδ IC50
# Target sequence in this assay (O00329 whole entry): as the sequence (O00329 whole entry) above
# Target sequence in this assay (Q63787 whole entry partner): as the sequence (Q63787 whole entry partner) above
# PI 3-kinase gamma [9] = biological target: T3, PI 3-kinase gamma; assay: Cellular U937 AKT assay K1 (MSD); format: cell-based; settings: U937 cells, K1 format; read-out: Assay K1 PI3Kγ IC50
# [10] = Microsomal clearance assay (M); settings: intrinsic clearance in rat liver microsomes
# Method: The experiments were performed in 96-well glass plates at 37° C. on an automated Tecan EVO platform. Test compounds at a concentration of 10 mM in pure DMSO were diluted 1:1000 in water to 10 μM. […] Reactions were initiated by the addition of 150 μL of a cofactor solution containing 2 mM NADPH.
# [11] = system: IL-8-induced neutrophil shape change in human whole blood; assay: Whole blood neutrophil shape change assay (L); format: cell-based; settings: Homo sapiens, Neutrophil, IL-8, human whole blood, read-out: Assay L WBSC IC50
# Chain of PI 4-kinase beta (Q9UBF8 whole entry): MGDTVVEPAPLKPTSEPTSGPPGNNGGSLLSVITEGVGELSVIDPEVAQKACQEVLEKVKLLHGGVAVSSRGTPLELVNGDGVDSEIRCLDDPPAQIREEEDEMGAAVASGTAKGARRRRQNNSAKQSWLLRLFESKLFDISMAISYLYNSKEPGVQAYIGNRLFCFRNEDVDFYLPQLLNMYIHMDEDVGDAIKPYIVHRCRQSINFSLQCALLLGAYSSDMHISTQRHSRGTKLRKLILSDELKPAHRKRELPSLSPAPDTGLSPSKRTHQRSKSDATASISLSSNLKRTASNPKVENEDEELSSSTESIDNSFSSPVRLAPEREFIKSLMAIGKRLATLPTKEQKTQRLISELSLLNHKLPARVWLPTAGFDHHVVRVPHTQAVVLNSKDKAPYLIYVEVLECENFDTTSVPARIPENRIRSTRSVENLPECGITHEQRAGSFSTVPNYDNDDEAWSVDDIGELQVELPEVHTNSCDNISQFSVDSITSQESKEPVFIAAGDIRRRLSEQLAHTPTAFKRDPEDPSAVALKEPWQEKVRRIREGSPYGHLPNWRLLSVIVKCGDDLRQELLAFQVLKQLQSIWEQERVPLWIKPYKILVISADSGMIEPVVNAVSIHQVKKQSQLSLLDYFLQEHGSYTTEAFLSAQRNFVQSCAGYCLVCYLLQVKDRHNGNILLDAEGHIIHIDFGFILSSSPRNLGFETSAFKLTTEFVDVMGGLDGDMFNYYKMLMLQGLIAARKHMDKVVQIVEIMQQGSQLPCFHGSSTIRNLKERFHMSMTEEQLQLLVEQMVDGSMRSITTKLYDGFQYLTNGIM
# T3 sequence (P48736 whole entry): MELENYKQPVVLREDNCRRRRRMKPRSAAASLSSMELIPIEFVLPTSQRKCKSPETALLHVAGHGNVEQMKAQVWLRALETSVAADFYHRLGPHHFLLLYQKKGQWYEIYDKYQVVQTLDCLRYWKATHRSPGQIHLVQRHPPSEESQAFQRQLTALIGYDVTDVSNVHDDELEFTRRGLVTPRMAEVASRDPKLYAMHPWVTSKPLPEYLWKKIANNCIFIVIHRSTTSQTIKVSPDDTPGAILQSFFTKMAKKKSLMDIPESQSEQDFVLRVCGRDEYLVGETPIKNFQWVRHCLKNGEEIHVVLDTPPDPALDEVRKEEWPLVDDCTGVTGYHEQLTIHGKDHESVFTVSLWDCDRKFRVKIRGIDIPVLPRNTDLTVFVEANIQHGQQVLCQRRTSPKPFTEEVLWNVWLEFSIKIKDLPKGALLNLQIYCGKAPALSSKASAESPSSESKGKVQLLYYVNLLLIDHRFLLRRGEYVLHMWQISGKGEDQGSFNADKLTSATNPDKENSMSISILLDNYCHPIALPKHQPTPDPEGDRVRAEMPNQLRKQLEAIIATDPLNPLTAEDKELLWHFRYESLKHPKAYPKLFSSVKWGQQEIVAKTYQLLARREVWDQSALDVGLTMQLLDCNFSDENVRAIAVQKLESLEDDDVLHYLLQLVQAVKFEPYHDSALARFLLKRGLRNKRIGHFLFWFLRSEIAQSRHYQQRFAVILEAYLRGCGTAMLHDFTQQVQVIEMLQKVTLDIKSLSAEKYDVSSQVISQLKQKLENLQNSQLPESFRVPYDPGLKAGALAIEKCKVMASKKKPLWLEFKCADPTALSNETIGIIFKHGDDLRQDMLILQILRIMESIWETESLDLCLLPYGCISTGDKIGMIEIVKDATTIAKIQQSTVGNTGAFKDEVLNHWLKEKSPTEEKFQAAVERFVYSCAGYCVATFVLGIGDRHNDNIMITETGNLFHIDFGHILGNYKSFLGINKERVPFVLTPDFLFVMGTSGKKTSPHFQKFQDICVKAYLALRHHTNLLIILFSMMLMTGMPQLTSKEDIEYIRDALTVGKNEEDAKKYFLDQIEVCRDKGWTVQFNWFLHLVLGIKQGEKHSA
SMILES,IC50 (PI 3-kinase alpha [1]) [nM],IC50 (PI 3-kinase beta [2]) [nM],IC50 (Vps34) [nM],IC50 (PI 4-kinase beta) [nM],IC50 (PI 3-kinase gamma [3]) [nM],IC50 (mTOR) [nM],IC50 (PI 3-kinase gamma [4]) [nM],IC50 (PI 3-kinase delta [5]) [nM],IC50 (PI 3-kinase alpha [6]) [nM],IC50 (PI 3-kinase beta [7]) [nM],IC50 (PI 3-kinase delta [8]) [nM],IC50 (PI 3-kinase gamma [9]) [nM],Assay M RLM CI(int) [10] [µL/min/mg],IC50 [11] [nM]
"Cc1ncc(-c2nc(-c3cc(S(=O)(=O)NC[C@H]4CCOC4)ccc3C)cnc2N)s1 [Example 42, (R)-3-(5-Amino-6-(2-methylthiazol-5-yl)pyrazin-2-yl)-4-methyl-N-((tetrahydrofuran-3-yl)methyl)benzenesulfonamide]",30,660,4650,3500,7,–,18,30,130,790,160,14,160,–
"Cc1ccc(S(=O)(=O)NCC(C)(C)O)cc1-c1cnc(N)c(-c2ccoc2)n1 [Example 39, 3-(5-Amino-6-(furan-3-yl)pyrazin-2-yl)-N-(2-hydroxy-2-methylpropyl)-4-methylbenzenesulfonamide]",790,3950,> 9550,7050,67,> 9550,999,1070,–,–,–,192,88,–
"CCN1CCC[C@@H]1CNS(=O)(=O)c1ccc(C)c(-c2cnc(N)c(-c3cnc(C)s3)n2)c1 [Example 41, (R)-3-(5-Amino-6-(2-methylthiazol-5-yl)pyrazin-2-yl)-N-((1-ethylpyrrolidin-2-yl)methyl)-4-methylbenzenesulfonamide]",110,250,7700,9400,10,–,24,20,> 3000,980,< 3,39,314,–
"Cc1ncc(-c2nc(-c3cc(S(=O)(=O)NC4CCOCC4)ccc3C)cnc2N)s1 [Example 45.3, 3-(5-Amino-6-(2-methylthiazol-5-yl)pyrazin-2-yl)-4-methyl-N-(tetrahydro-2H-pyran-4-yl)benzenesulfonamide]",40,240,1600,1600,13,–,494,100,–,–,–,–,78,–
"Cc1ncc(-c2nc(-c3cc(S(=O)(=O)NCC4(O)CCOCC4)ccc3C)cnc2N)s1 [Example 45.10, 3-(5-Amino-6-(2-methylthiazol-5-yl)pyrazin-2-yl)-N-((4-hydroxytetrahydro-2H-pyran-4-yl)methyl)-4-methylbenzenesulfonamide]",20,340,3900,1900,10,–,30,150,–,–,–,–,32,662
"Cc1ncc(-c2nc(-c3cc(S(=O)(=O)N4CC(CO)C4)ccc3C)cnc2N)s1 [Example 45.8, (1-((3-(5-Amino-6-(2-methylthiazol-5-yl)pyrazin-2-yl)-4-methylphenyl)sulfonyl)azetidin-3-yl)methanol]",90,590,2000,3300,130,–,317,320,–,–,–,–,67,–
"Cc1ccc(S(=O)(=O)N[C@H]2CC[C@H](O)CC2)cc1-c1cnc(N)c(-c2nc(C3CC3)no2)n1 [Example 24, Trans-3-[5-Amino-6-(3-cyclopropyl-[1,2,4]oxadiazol-5-yl)-pyrazin-2-yl]-N-(4-hydroxy-cyclohexyl)-4-methyl-benzene sulfonamide]",200,6060,> 9100,> 9100,7,7910,–,60,1060,6250,660,53,43,561

# Other lines, results leading:
IC50 (PI 3-kinase alpha [1]) [nM],IC50 (PI 3-kinase beta [2]) [nM],IC50 (Vps34) [nM],IC50 (PI 4-kinase beta) [nM],IC50 (PI 3-kinase gamma [3]) [nM],IC50 (mTOR) [nM],IC50 (PI 3-kinase gamma [4]) [nM],IC50 (PI 3-kinase delta [5]) [nM],IC50 (PI 3-kinase alpha [6]) [nM],IC50 (PI 3-kinase beta [7]) [nM],IC50 (PI 3-kinase delta [8]) [nM],IC50 (PI 3-kinase gamma [9]) [nM],Assay M RLM CI(int) [10] [µL/min/mg],IC50 [11] [nM],SMILES
2100,> 9100,> 9100,> 9100,89,> 9100,> 10000,1200,–,–,–,–,–,–,"Cc1cc(-c2nc(-c3cc(S(=O)(=O)NC[C@@H]4CCNC4)ccc3C)cnc2N)ccn1 [Example 129.35, (R)-3-(5-amino-6-(2-methylpyridin-4-yl)pyrazin-2-yl)-4-methyl-N-(pyrrolidin-3-ylmethyl)benzenesulfonamide]"
550,1800,> 10000,5900,150,2900,211,900,4530,5300,1330,–,75,–,"COC1(C)CN(S(=O)(=O)c2ccc(C)c(-c3cnc(N)c(-c4cn(C)nc4C)n3)c2)C1 [Example 102, 3-(1,3-Dimethyl-1H-pyrazol-4-yl)-5-(5-(3-methoxy-3-methylazetidin-1-ylsulfonyl)-2-methylphenyl)pyrazin-2-amine]"
1300,6900,> 9100,> 9100,110,> 9100,> 10000,960,> 10000,> 3000,–,6210,15,–,"Cc1cc(-c2nc(-c3cc(S(=O)(=O)NC[C@H]4CCNC4)ccc3C)cnc2N)ccn1 [Example 129.36, (S)-3-(5-amino-6-(2-methylpyridin-4-yl)pyrazin-2-yl)-4-methyl-N-(pyrrolidin-3-ylmethyl)benzenesulfonamide]"
1000,3000,> 10000,> 10000,–,–,332,250,> 10000,> 10000,1640,–,–,–,"CCN1CCC[C@H]1CNS(=O)(=O)c1ccc(C)c(-c2cnc(N)c(-c3cn(C)nc3C)n2)c1 [Example 128.1, (S)-3-(5-Amino-6-(1,3-dimethyl-1H-pyrazol-4-yl)pyrazin-2-yl)-N-((1-ethylpyrrolidin-2-yl)methyl)-4-methylbenzenesulfonamide]"
2550,6550,> 9550,4200,260,> 9550,1490,2500,–,–,–,1970,85,–,Cc1ccc(S(=O)(=O)N2CC(F)(F)C2)cc1-c1cnc(N)c(-n2cncn2)n1 [Example 127.4]
100,1700,> 10000,> 10000,45,–,280,500,1510,1550,780,104,134,–,"Cc1ccc(S(=O)(=O)NCC2(C)CCCO2)cc1-c1cnc(N)c(-c2cn(C)nc2C)n1 (centres unmarked) [Example 128.4, 3-(5-Amino-6-(1,3-dimethyl-1H-pyrazol-4-yl)pyrazin-2-yl)-4-methyl-N-((2-methyltetrahydrofuran-2-yl)methyl)benzenesulfonamide]"
1200,> 9100,> 9100,> 9100,58,8700,1600,910,4290,> 10000,4970,804,99,–,"Cc1cc(-c2nc(-c3cc(S(=O)(=O)NC[C@H]4CCCO4)ccc3C)cnc2N)ccn1 [Example 129.12, (R)-3-(5-amino-6-(2-methylpyridin-4-yl)pyrazin-2-yl)-4-methyl-N-((tetrahydrofuran-2-yl)methyl)benzenesulfonamide]"
350,1830,> 9100,> 9100,15,> 9100,–,390,2260,5380,2000,177,64,803,"Cc1ccc(S(=O)(=O)NCC(C)(C)CO)cc1-c1cnc(N)c(-n2cncn2)n1 [Example 73, 3-(5-Amino-6-(1H-1,2,4-triazol-1-yl)pyrazin-2-yl)-N-(3-hydroxy-2,2-dimethylpropyl)-4-methylbenzenesulfonamide]"
